Broadly, the inhibition is the change of the read-out against control, counted positive when it falls. One may read the IC50 as the concentration that gives 50% inhibition. A low value points to inhibition by little substance.

This is an account of results in article PMC8020795 (Proceedings of the National Academy of Sciences of the …, 2021).

Entries after “also recorded” stand apart in the source; their conditions may differ.

For one data set, the target named is T1, bradykinin B1 receptor (Homo sapiens, UniProt P46663).
T1 construct: purchased Eurofins Panlabs, Inc (Taipei, Taiwan, ROC)
T1 sequence (P46663 1-353): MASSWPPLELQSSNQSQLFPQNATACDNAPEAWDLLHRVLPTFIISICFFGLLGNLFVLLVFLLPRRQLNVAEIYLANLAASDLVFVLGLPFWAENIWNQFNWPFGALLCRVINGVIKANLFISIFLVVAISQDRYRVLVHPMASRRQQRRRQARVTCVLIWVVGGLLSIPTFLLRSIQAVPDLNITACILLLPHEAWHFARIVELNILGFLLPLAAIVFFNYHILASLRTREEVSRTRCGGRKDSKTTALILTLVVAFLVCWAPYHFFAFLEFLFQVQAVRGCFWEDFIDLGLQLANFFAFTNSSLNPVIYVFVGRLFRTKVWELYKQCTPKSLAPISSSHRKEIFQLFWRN
Briefly: Off-target standard assay (radioligand binding, Eurofins Panlabs). Conditions: read-out: Inhibition of bradykinin B1 receptor (B1R). The text has this: (§1) Table: List of genes examined by real-time PCR and the primer sequences used.
(§2) Genes Forward primers Reverse primers […]
(§3) Vim 5’-[…]-3’ 5’-[…]-3’ […]
(§4) Zeb2 5’-[…]-3’ 5’-[…]-3’
(§5) Twist1 5’-[…]-3’ 5’-[…]-3’
(§6) Cdh1 5’-[…]-3’ 5’-[…]-3’
(§7) Mta3 5’-[…]-3’ 5’-[…]-3’ […]
(§8) Off-target standard assays
(§9) Methods employed in this study have been adapted from the scientific literature to […]
(§10) maximize reliability and reproducibility. Reference standards were run as an integral part of […]
(§11) each assay to ensure the validity of the results obtained. Radioligand binding Assays were […]
(§12) performed under conditions described in the accompanying "Methods" section of this report […]
(§13) by Eurofins Panlabs, Inc (Taipei, Taiwan, ROC).
(§14) BPRCX807 were tested in the hERG (hERG-CHO, automated patch-clamp) assay and determined at Eurofins Panlabs (Missouri, USA). The experiment was accepted in accordance with Eurofins validation Standard Operating Procedure.
(§15) Selectivity Screening of various chemokine receptors
(§16) The results were performed by Eurofins DiscoverX (Fremont, California, USA). The

The target in a further data set is T2, dopamine D3 receptor (Homo sapiens, UniProt P35462).
T2 construct: purchased Eurofins Panlabs, Inc (Taipei, Taiwan, ROC)
T2 sequence (P35462 whole entry, species assumed): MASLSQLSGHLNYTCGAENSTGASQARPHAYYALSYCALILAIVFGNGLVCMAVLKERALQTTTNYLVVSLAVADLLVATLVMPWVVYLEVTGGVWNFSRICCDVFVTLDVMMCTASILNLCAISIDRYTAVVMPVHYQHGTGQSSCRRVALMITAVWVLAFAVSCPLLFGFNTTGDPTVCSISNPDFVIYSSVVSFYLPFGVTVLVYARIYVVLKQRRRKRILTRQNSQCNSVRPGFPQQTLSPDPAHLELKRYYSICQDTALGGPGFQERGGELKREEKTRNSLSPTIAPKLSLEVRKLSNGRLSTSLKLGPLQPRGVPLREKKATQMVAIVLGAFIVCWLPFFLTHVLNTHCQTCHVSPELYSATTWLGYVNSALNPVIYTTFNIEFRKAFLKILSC
The description is as above. To be noted: read-out: Inhibition of dopamine D3 receptor (D3R).
Text: as §1, §2, §3, §4, §5, §6, §7, §8, §9, §10, §11, §12, §13, §14, §15, §16

Data set [1] concerns human liver cytochrome P450 isozymes (CYP 1A2, 2C9, 2C19, 2D6, 2E1, 3A4). Conditions: 100 μM; 1A2, 2C9, 2C19, 2D6, 2E1, and 3A4 isozymes. The text has this:
The effects of BPRCX807 on the activity of six specific human liver cytochrome P450 isozymes (CYP 1A2, 2C9, 2C19, 2D6, 2E1, 3A4) expressed in baculovirus-infected insect cell supersomes were studied. The reactions used to measure the activity of these enzymes

The test system of data set [2] is 65 other nonprimary targets (receptors and ion channels). Briefly: Off-target standard assays, remaining panel. Conditions: 10 µM. Format: binding.
Text: as §1, §2, §3, §4, §5, §6, §7, §8, §9, §10, §11, §12, §13, §14, §15, §16

Data set [3] concerns the target T3, CXCR4 (Homo sapiens, UniProt P61073). Briefly: PathHunter β-arrestin assay, chemokine receptor selectivity. The data set is classed as cell-based.
Text: as §1, §2, §3, §4, §5, §6, §7, §8, §9, §10, §11, §12, §13, §14, §15
(§17) The results were performed by Eurofins DiscoverX (Fremont, California, USA). The […]
(§18) PathHunter® β -Arrestin assay was performed in a homogenous, non-imaging assay format […]
(§19) using a technology developed by DiscoverX called Enzyme Fragment Complementation […]
(§20) called Enzyme Acceptor (EA). PK and EA are then expressed as fusion proteins in the cell, […]
(§21) restoring β-Gal activity which is measured using chemiluminescent PathHunter® Detection […]

Data set [4] concerns other chemokine receptors (10 CCRs, 7 CXCRs, and 1 CX3CR subtypes). Described as above. Conditions: 10 µM. Format: cell-based.
Text: as §1, §2, §3, §4, §5, §6, §7, §8, §9, §10, §11, §12, §13, §14, §15, §17, §18, §19, §20, §21

The target of data set [5] is T3, CXCR4. Briefly: Human CXCR4-binding assay ([125I]CXCL12 displacement, hCXCR4-transfected HEK293T membranes). More on the design: expressed in transfected cells; host or cells: HEK293T. How it is done: concentrations of BPRCX807 in incubation buffer (50 mM HEPES-NaOH, pH 7.4, 100 mM NaCl, 5 mM MgCl2, 1 mM CaCl2, 0.5% BSA). Nonspecific binding was defined in the […]
The reaction mixtures were incubated for 1.5 h at 30 °C and then transferred to a 96 -well GF/B filter plate (Merck Millipore, Billerica, MA).
The reaction mixtures were terminated by manifold filtration and washed with ice-cold wash buffer (50 mM HEPES-NaOH, pH 7.4, 100 mM NaCl) four times. The radioactivity bound to the filter was measured with a TopCount instrument (PerkinElmer, Waltham, MA). The IC50 values were determined as the concentrations of the compounds required to inhibit 50% of the specific binding of [125I]CXCL12 and were calculated by nonlinear regression (GraphPad software, San Diego, CA).
Pharmacokinetics and toxicological studies
Male C57BL/6 mice, each weighing 23.4–25.4 g, were quarantined for 1 week before drug treatment. Compounds dissolved in 100% saline were individually given to mice (n = 3) subcutaneously (6 mg/kg; nonfasted mice). […] The plasma samples were analyzed by liquid chromatography– tandem mass spectrometry (LC–MS/MS), and the data were calculated by a standard noncompartmental method using the Kinetica software program (InnaPhase). […]

Data set [6] can be described thus: Metabolic stability in liver microsomes. Format: in vitro ADME. To be noted: mouse, rat, dog, and human. The text has this:
Figure S4. The metabolic stabilities of BPRCX807 in liver microsomes. BPRCX807 is […]
Background: Liver microsomes are a subcellular fraction often used to study metabolism.

T3 sequence (P61073 whole entry): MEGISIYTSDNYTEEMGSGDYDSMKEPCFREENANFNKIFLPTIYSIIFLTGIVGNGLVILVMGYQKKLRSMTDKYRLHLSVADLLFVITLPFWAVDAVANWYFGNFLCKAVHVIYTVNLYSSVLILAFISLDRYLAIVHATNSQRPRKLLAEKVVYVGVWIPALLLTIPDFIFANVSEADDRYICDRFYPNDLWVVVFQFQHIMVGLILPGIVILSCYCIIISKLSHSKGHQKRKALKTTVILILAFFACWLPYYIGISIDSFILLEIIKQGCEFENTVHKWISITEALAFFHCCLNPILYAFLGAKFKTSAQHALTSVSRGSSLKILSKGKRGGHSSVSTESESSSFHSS

Consider `Cc1cc(NC2CCN(C(=O)CCNCC(=O)O)CC2)nc(NCc2nc(CCCNCCCNC3CCCCC3)co2)n1` [BPRCX807], for which the inhibition at 10 µM was 62% at bradykinin B1 receptor, 58% at dopamine D3 receptor and 100% against CXCR4 [3]. Moreover, in data set [1], the CYP450 inhibition entry was “no inhibitory effects; also recorded: No inhibition”. Moreover, in data set [2], the “Inhibition of 65 other nonprimary targets” value is < 50%. Moreover, the “Inhibition of other chemokine receptors (β-arrestin assay)” value in data set [4] is < 10%. For the same compound, on CXCR4 [5], the IC50 worked out at 0.0404 ± 0.008 µM. For the same compound, the “Metabolic stability in liver microsomes” value in data set [6] is recorded as “metabolically stable”.
